For the experiment, the system named is Smad2/Smad3 phosphorylation. In words: Phospho-Smad2/3 Inhibition Assay (western blot), Panc-1. Format: cell-based, human. Particulars: at 10 μM, Panc-1 pancreatic cancer cell line; starred symbols = activation. Here is the method:
Protocol for Phospho-Smad2/3 Inhibition Assay
This assay is referred to as the “Phospho-Smad2/3 Inhibition Assay” throughout this application.
Cell lines: Human tumor-derived pancreatic cancer cell line Panc-1 (expressing KRas G12D mutant) and mouse muscle myoblast C2C12 were purchased from American Type Culture Collection and grown in complete DMEM-High Glucose, supplemented with penicillin (100 U/mL), streptomycin (100 μg/mL), and 10% heat-inactivated FBS at 37° C. in a humidified incubator with 5% CO2.
Method: Cells were plated at 350000 cells/well density in a 12-well plate, allowed 3 hours to adhere to the plate, then starved in the appropriate medium in the presence of 0.5% FBS overnight. The small molecules to be tested were added to the cells in the final concentration of 10 μM in the presence of 0.3% DMSO for 3 hours incubation at 37° C. For IC50 value determination, serial dilutions of compounds were added to cells under the same conditions. Next, Panc-1 cells were stimulated with 10 ng/ml TGF-b1 for 1 hour, and C2C12 cells were stimulated with 10 ng/ml TGF-b1 for 20 minutes (recombinant human TGF-b1, R&D Systems). After stimulation cells were lysed with lysis buffer containing 1% Triton X-100, EDTA, and Halt™ Protease & Phosphatase Inhibitor Cocktail (Thermo Scientific). Protein concentration was assessed by BCA protein assay (Thermo Scientific). Phosphorylation level of Smad2/Smad3 was determined by western blot.
Western blot protocol: Equal amounts of protein (15-50 μg) were separated by SDS-PAGE and transferred to nitrocellulose membranes (Invitrogen by Thermo Fisher Scientific). The membrane was stained with Ponceau S Stain (Boston BioProducts) to verify uniform protein loading. Membranes were blocked with 10% milk and phosphorylation levels of Smad2/Smad3 were assessed by incubating overnight at 4° C. with the following antibodies: Phospho-Smad2 (Ser465/467) and Phosph-Smad3 (Ser423/425), both from Cell Signaling Technology. Then the membranes were incubated with HRP-conjugated secondary antibody (Jackson Immunoresearch, West Grove, PA). Bands were incubated in Amersham ECL Prime Western Blotting Detection Reagent (GE Healthcare) and visualized using the ChemiDoc MP imaging system (Bio-Rad).
Take `CCc1nc(Nc2nc(-c3nccn3C)nn3cc(-c4ccn(C)n4)c(C)c23)nn1C` [Compound 108, N-(5-Ethyl-1-methyl-1H-1,2,4-triazol-3-yl)-5-methyl-2-(1-methyl-1H-imidazol-2-yl)-6-(1-methyl-1H-pyrazol-3-yl)pyrrolo[2,1-f][1,2,4]triazin-4-amine]: the “% inh of Smad2/3 phosphorylation in Panc-1” value (“% inh” below) was “D* (D* = 76-100% activation)”.

Consider `CO[C@@H]1CC[C@@H](Nc2nc(-c3nccn3C)nn3cc(-c4ccn(C)n4)c(C)c23)C1` (racemic) [Compound 132, rac N-((1R,3R)-3-Methoxycyclopentyl)-5-methyl-2-(1-methyl-1H-imidazol-2-yl)-6-(1-methyl-1H-pyrazol-3-yl)pyrrolo[2,1-f][1,2,4]triazin-4-amine], for which the “% inh” value is “A* (A* = 1-25% activation)”.

Take `Cc1c(-c2ccn(C3CC3)n2)cn2nc(-c3nccn3C)nc(Nc3cc(OCC(F)(F)F)ccn3)c12` [Compound 140, 6-(1-Cyclopropyl-1H-pyrazol-3-yl)-5-methyl-2-(1-methyl-1H-imidazol-2-yl)-N-(4-(2,2,2-trifluoroethoxy)pyridin-2-yl)pyrrolo[2,1-f][1,2,4]triazin-4-amine]: the “% inh” value was “A (A = 1-25% inhibition)”. For `COc1ccnc(Nc2nc(-c3nccn3C)nn3cc(-c4cnn(C(C)C)c4)c(C)c23)c1` [Compound 165, 6-(1-Isopropyl-1H-pyrazol-4-yl)-N-(4-methoxypyridin-2-yl)-5-methyl-2-(1-methyl-1H-imidazol-2-yl)pyrrolo[2,1-f][1,2,4]triazin-4-amine] the value was “B* (B* = 26-45% activation)”. Regarding `COCCO[C@H]1C[C@H](Nc2nc(-c3nccn3C)nn3cc(-c4cccnc4)c(C)c23)C1` [Compound 152, N-((1r,3r)-3-(2-methoxyethoxy)cyclo-butyl)-5-methyl-2-(1-methyl-1H-imidazol-2-yl)-6-(pyridin-3-yl)pyrrolo[2,1-f][1,2,4]triazin-4-amine], the “% inh” value is recorded as “A (A = 1-25% inhibition)”.

On to `COc1cncnc1Nc1nc(-c2nccn2C)nn2cc(-c3ccn(C)n3)c(C)c12` [Compound 107, N-(5-Methoxypyrimidin-4-yl)-5-methyl-2-(1-methyl-1H-imidazol-2-yl)-6-(1-methyl-1H-pyrazol-3-yl)pyrrolo[2,1-f][1,2,4]triazin-4-amine], for which the “% inh” value is “A (A = 1-25% inhibition)”. Next, `Cc1c(-c2ccn(C)n2)cn2nc(-c3nccn3C)nc(Nc3cc(OCCO)ncn3)c12` [Compound 101, 2-((6-((5-Methyl-2-(1-methyl-1H-imidazol-2-yl)-6-(1-methyl-1H-pyrazol-3-yl)pyrrolo[2,1-f][1,2,4]triazin-4-yl)amino)pyrimidin-4-yl)oxy) ethan-1-ol]: “D* (D* = 76-100% activation)”; `Cc1c(-c2ccn(C)n2)cn2nc(-c3nccn3C)nc(Nc3nnco3)c12.Cl` [Compound 119, N-(5-Methyl-2-(1-methyl-1H-imidazol-2-yl)-6-(1-methyl-1H-pyrazol-3-yl)pyrrolo[2,1-f][1,2,4]triazin-4-yl)-1,3,4-oxadiazol-2-amine hydrochloride salt]: “B* (B* = 26-45% activation)”; `CO[C@H]1C[C@@H](Nc2nc(-c3nccn3C)nn3cc(-c4ccn(C)n4)c(C)c23)C1` [Compound 131, N-((1s,3s)-3-Methoxycyclobutyl)-5-methyl-2-(1-methyl-1H-imidazol-2-yl)-6-(1-methyl-1H-pyrazol-3-yl)pyrrolo[2,1-f][1,2,4]triazin-4-amine]: 0 (0 = 0% inhibition). For `Cc1c(-c2ccn(C3CC3)n2)cn2nc(-c3nccn3C)nc(Nc3cc(OCCCN(C)C)ccn3)c12` [Compound 148, 6-(1-Cyclopropyl-1H-pyrazol-3-yl)-N-(4-(3-(dimethylamino)propoxy)pyridin-2-yl)-5-methyl-2-(1-methyl-1H-imidazol-2-yl)pyrrolo[2,1-f][1,2,4]triazin-4-amine] the value was “A (A = 1-25% inhibition)”.

The values are drawn from patent US12459951B2, “Compounds that interact with RAS superfamily proteins for treatment of cancers, inflammatory diseases, rasopathies, and fibrotic disease” (SHY Therapeutics, LLC, priority 2022, dated 2025).
